Results reported in patent publication US8741928B2, “Protected antimicrobial compounds for high temperature applications” (Dow Global Technologies LLC, priority 2010, dated 2014).

Experiments:
[1] = Analysis of glutaraldehyde release after heat-aging; format: physicochemical; settings: sterile deionized water, molar equivalent of 2000 ppm glutaraldehyde, initial and after heat-aging at 55° C. for 2 h or 24 h; for Glutaraldehyde concentration after pre-column derivatization by HPLC: acidic derivatization
Protocol: Samples of the AMPD-adduct and TA-adduct are analyzed for glutaraldehyde content. Samples are prepared in sterile deionized water at the molar equivalent of 2000 ppm glutaraldehyde. A standard of 500 ppm glutaraldehyde is also prepared. An initial measurement is taken just after sample preparation. Samples are then heat-aged at 55° C. for 2 h or 24 h and analyzed again. Glutaraldehyde concentration is measured directly via GC and after pre-column derivatization by HPLC.

T. thermophilus = assay: Biocidal efficacy against thermophilic bacteria at 70° C.; format: cell-based; settings: for Kill of bacteria maintained over 21 days: equivalent to 50 ppm glutaraldehyde, 4 hr exposure between challenge and enumeration, weekly challenges over 21 days
Protocol: b. Thermophilic Bacteria. A 48-72 hour old culture of T. thermophilus is pelleted by centrifuging at 2000 g and the pellet resuspended in 10 times the culture volume of buffer (PBS or carbonate-buffered synthetic freshwater). The suspension is distributed into 10 mL aliquots in glass screw-cap tubes. Each tube is then treated with glutaraldehyde or an adduct and incubated at 70° C. At indicated timepoints, cell density in each tube is measured via dilution to extinction by serially diluting a sample and plating dilutions on solid media.

| Compound | Glutaraldehyde concentration measured directly via GC [1] | Glutaraldehyde concentration after pre-column derivatization by HPLC [1] | Kill of bacteria maintained over 21 days (T. thermophilus) | Control of bacterial levels after 5 days (T. thermophilus; equivalent of 100 ppm glutaraldehyde, after 5 days) |
| --- | --- | --- | --- | --- |
| CC12COC3CCCC(OC1)N32 (centres unmarked) [AMPD-adduct, 2a-methyloctahydro-1,4-dioxa-2a1-azacyclopenta[cd]indene] | No glutaraldehyde is detected | low levels of glutaraldehyde | 4 log | – |
| OCC12COC3CCCC(OC1)N32 (centres unmarked) [TA-adduct, (octahydro-1,4-dioxa-2a^1-azacyclopenta[cd]inden-2a-yl)methanol] | No glutaraldehyde is detected | low levels of glutaraldehyde | 4 log | – |
| O=CCCCC=O [glutaraldehyde, reference compound] | – | – | 4 log | fails to control bacterial levels |
